Patent publication US20100144672A1, “PYRIMIDINYL PYRAZOLES AS INSECTICIDES AND PARASITICIDE ACTIVE AGENTS” (BAYER CROPSCIENCE AG, priority 2006, published 2010)
Like-named read-outs stand apart in the source and are kept apart here. Each block holds one compound with its values, some of them ahead of it.

Tests used:
[1] = logP by HPLC (EEC-Directive 79/831 Annex V.A8); assay type: physicochemical
Procedure: The logP values given in the tables were determined in accordance with EEC-Directive 79/831 Annex V.A8 by HPLC (gradient method, acetonitrile/0.1% strength aqueous phosphoric acid or formic acid).

[2] = system: larvae of the mustard beetle (Phaedon cochleariae); assay: Phaedon test (PHAECO spray treatment); assay type: in vivo; settings: 168 h, application rate 500 g/ha, after 7 d, read-out: activity (effect in %, beetle larvae killed)
Procedure: Phaedon Test ([…] Spray Treatment) [table] To produce a suitable preparation of active compound, 1 part by weight of active compound is mixed with the stated amounts of solvents and emulsifier, and the concentrate is diluted with emulsifier-containing water to the desired concentration. Discs of chinese cabbage (Brassica pekinensis) are sprayed with an active compound preparation of the desired concentration and, after drying, populated with larvae of the mustard beetle (Phaedon cochleariae). After the desired period of time, the effect in % is determined 100% means that all beetle larvae have been killed; 0% means that none of the beetle larvae have been killed.

[3] = HPLC gradient method, acetonitrile/0.1% aqueous phosphoric acid or formic acid
[4] = Physical data column of Table 35
[5] = HPLC gradient method, acetonitrile/0.1% strength aqueous phosphoric acid or formic acid

SMILES: Nc1c(-c2cccc(Cl)c2)c(C(F)(F)F)nn1-c1ncccn1 [Example 1-5]
logP [1, 3]: logP = 2.96

SMILES: CCOc1ccc(-c2c(C(F)(F)F)nn(-c3ncccn3)c2N)cc1 [Example 5-23]
pest or weed control at 500 g/ha [2]: ≥ 80%

SMILES: CC(C)Oc1ccc(-c2c(C(F)(F)F)nn(-c3ncccn3)c2N)cc1 [Example 5-25]
pest or weed control at 500 g/ha [2]: ≥ 80%

SMILES: CSc1ccc(-c2c(C(F)(F)F)nn(-c3ncccn3)c2N)cc1 [Example 5-58]
pest or weed control at 500 g/ha [2]: ≥ 80%

SMILES: C[S+]([O-])c1ccc(-c2c(C(F)(F)F)nn(-c3ncccn3)c2N)cc1 (centres unmarked) [Example 5-59]
pest or weed control at 500 g/ha [2]: ≥ 80%

SMILES: CS(=O)(=O)c1ccc(-c2c(C(F)(F)F)nn(-c3ncccn3)c2N)cc1 [Example 5-60]
pest or weed control at 500 g/ha [2]: ≥ 80%

SMILES: Cc1ccnc(-n2nc(C(F)(F)F)c(-c3cccc(Br)c3)c2N)n1 [Example 19-09]
lgP ([1]; Table 19, Physical data): lgP = 3.84

SMILES: Cc1ccnc(-n2nc(C(F)(F)F)c(-c3ccc(Cl)c(Cl)c3)c2N)n1 [Example 19-18]
lgP ([1]; Table 19, Physical data): lgP = 3.73

SMILES: Nc1c(-c2ccc(Br)cc2)c(C(F)(F)F)nn1-c1ncc(F)cn1 [Example 19-48]
lgP ([1]; Table 19, Physical data): lgP = 3.19

SMILES: Nc1c(-c2cc(Cl)cc(Cl)c2)c(C(F)(F)F)nn1-c1ncc(F)cn1 [Example 19-57]
lgP ([1]; Table 19, Physical data): lgP = 3.63

SMILES: Nc1c(-c2cc(Cl)cc(Cl)c2)c(C(F)(F)F)nn1-c1ncc(Cl)cn1 [Example 19-76]
lgP ([1]; Table 19, Physical data): lgP = 4.10

SMILES: Nc1c(-c2cc(Cl)cc(Cl)c2)c(C(F)(F)F)nn1-c1ncc(Br)cn1 [Example 19-95]
lgP ([1]; Table 19, Physical data): lgP = 4.15

SMILES: Nc1c(-c2cc(Cl)cc(Cl)c2)c(C(F)(F)F)nn1-c1nccc(C(F)(F)F)n1 [Example 19-152]
lgP ([1]; Table 19, Physical data): lgP = 4.25

SMILES: COc1ccnc(-n2nc(C(F)(F)F)c(-c3cc(Cl)cc(Cl)c3)c2N)n1 [Example 19-171]
lgP ([1]; Table 19, Physical data): lgP = 2.93

SMILES: Cc1ccnc(-n2nc(C(F)(F)F)c(-c3cc(F)cc(Cl)c3)c2N)n1 [Example 19-198]
lgP ([1]; Table 19, Physical data): lgP = 3.42

SMILES: Cc1ccnc(-n2nc(C(F)(F)F)c(-c3cc(F)cc(F)c3)c2N)n1 [Example 19-199]
lgP ([1]; Table 19, Physical data): lgP = 3.06

SMILES: Cc1ccnc(-n2nc(C(F)(F)F)c(-c3ccc(Br)cc3F)c2N)n1 [Example 19-200]
lgP ([1]; Table 19, Physical data): lgP = 3.28

SMILES: Cc1cc(C)cc(-c2c(C(F)(F)F)nn(-c3nccc(C)n3)c2N)c1 [Example 19-202]
lgP ([1]; Table 19, Physical data): lgP = 3.42

SMILES: Cc1cnc(-n2nc(C(F)(F)F)c(-c3cc(F)cc(Cl)c3)c2N)nc1 [Example 19-203]
lgP ([1]; Table 19, Physical data): lgP = 3.42

SMILES: Cc1cnc(-n2nc(C(F)(F)F)c(-c3cc(F)cc(F)c3)c2N)nc1 [Example 19-204]
lgP ([1]; Table 19, Physical data): lgP = 3.06

SMILES: Cc1cnc(-n2nc(C(F)(F)F)c(-c3ccc(Br)cc3F)c2N)nc1 [Example 19-205]
lgP ([1]; Table 19, Physical data): lgP = 3.28

SMILES: Cc1cnc(-n2nc(C(F)(F)F)c(-c3cc(Br)cc(Br)c3)c2N)nc1 [Example 19-207]
lgP ([1]; Table 19, Physical data): lgP = 4.05

SMILES: Cc1cnc(-n2nc(C(F)(F)F)c(-c3cc(C)cc(C)c3)c2N)nc1 [Example 19-208]
lgP ([1]; Table 19, Physical data): lgP = 3.47

SMILES: N#Cc1ccnc(-n2nc(C(F)(F)F)c(-c3cc(Cl)cc(Cl)c3)c2N)n1 [Example 19-209]
lgP ([1]; Table 19, Physical data): lgP = 3.84

SMILES: CCNc1c(-c2ccc(F)cc2Cl)c(C)nn1-c1ncccn1 [Example 25-31]
logP [1]: logP = 2.79

SMILES: Cc1nn(-c2ncccn2)c(NC(C)C)c1-c1ccc(F)cc1Cl [Example 26-37]
logP ([1]; Physical data of Table 26): logP = 2.91

SMILES: Cc1nn(-c2ncccn2)c(NCC2CC2)c1-c1ccc(F)cc1 [Example 26-62]
logP ([1]; Physical data of Table 26): logP = 3.15

SMILES: Nc1c(-c2cc(F)cc(Cl)c2)c(C(F)(F)F)nn1-c1ncc(F)cn1 [Example 43-07]
lgP [1, 5]: lgP = 3.24

SMILES: Nc1c(-c2cc(F)cc(F)c2)c(C(F)(F)F)nn1-c1ncc(F)cn1 [Example 43-08]
lgP [1, 5]: lgP = 2.93

SMILES: Nc1c(-c2ccc(Br)cc2F)c(C(F)(F)F)nn1-c1ncc(F)cn1 [Example 43-09]
lgP [1, 5]: lgP = 3.15

SMILES: Nc1c(-c2cc(Br)cc(Br)c2)c(C(F)(F)F)nn1-c1ncc(F)cn1 [Example 43-11]
lgP [1, 5]: lgP = 3.84

More lines, now with the values ahead:

logP [1]: logP = 2.59
SMILES: Nc1c(-c2ccccc2Cl)c(C(F)(F)F)nn1-c1ncccn1 [1-04]

logP [1, 3]: logP 3.22
SMILES: Nc1c(-c2ccc(Oc3ccccc3)cc2)c(C(F)(F)F)nn1-c1ncccn1 [5-40]

logP (lgP), Physical data ([1]; by HPLC): lgP = 3.88
SMILES: FC(F)(F)c1nn(-c2ncccn2)c(Cl)c1-c1cccc(Cl)c1 [Example 14-06]

logP (lgP), Physical data ([1]; by HPLC): lgP = 3.89
SMILES: FC(F)(F)c1nn(-c2ncccn2)c(Br)c1-c1cccc(Cl)c1 [Example 14-25]

chromatographic logP ([1]; by HPLC, read-out: logP (lgP), Physical data): 3.75
SMILES: FC(F)(F)c1nn(-c2ncccn2)c(Br)c1-c1ccc(Br)cc1 [Example 14-29]

logP (lgP), Physical data ([1]; by HPLC): lgP = 4.62
SMILES: FC(F)(F)c1nn(-c2ncccn2)c(Br)c1-c1cc(Cl)cc(Cl)c1 [Example 14-38]

logP (lgP), Physical data ([1]; by HPLC): lgP = 3.78
SMILES: FC(F)(F)c1nn(-c2ncccn2)c(I)c1-c1cccc(Cl)c1 [Example 14-44]

logP (lgP), Physical data ([1]; by HPLC): lgP = 4.39
SMILES: FC(F)(F)c1nn(-c2ncccn2)c(I)c1-c1ccc(Cl)c(Cl)c1 [Example 14-56]

logP (lgP), Physical data ([1]; by HPLC): lgP = 4.51
SMILES: FC(F)(F)c1nn(-c2ncccn2)c(I)c1-c1cc(Cl)cc(Cl)c1 [Example 14-57]

logP (lgP), Physical data ([1]; by HPLC): lgP = 4.64
SMILES: FC(F)(F)c1cc(Cl)cc(-c2c(C(F)(F)F)nn(-c3ncccn3)c2Br)c1 [Example 14-58]

logP (lgP), Physical data ([1]; by HPLC): lgP = 4.39
SMILES: FC(F)(F)c1cc(Cl)cc(-c2c(C(F)(F)F)nn(-c3ncccn3)c2I)c1 [Example 14-59]

logP ([1]; Physical data column of Table 16): logP = 1.71
SMILES: Cc1nn(-c2ncccn2)c(N)c1-c1ccc(F)cc1Cl [Example 16-18]

lgP ([1]; Table 19, Physical data): lgP = 3.37
SMILES: Cc1ccnc(-n2nc(C(F)(F)F)c(-c3ccc(Br)cc3)c2N)n1 [Example 19-10]

lgP ([1]; Table 19, Physical data): lgP = 3.53
SMILES: Nc1c(-c2ccc(Cl)cc2)c(C(F)(F)F)nn1-c1ncc(Cl)cn1 [Example 19-64]

lgP ([1]; Table 19, Physical data): lgP = 3.02
SMILES: Cc1ccnc(-n2nc(C(F)(F)F)c(-c3ccc(F)c(F)c3)c2N)n1 [Example 19-201]

lgP ([1]; Table 19, Physical data): lgP = 3.02
SMILES: Cc1cnc(-n2nc(C(F)(F)F)c(-c3ccc(F)c(F)c3)c2N)nc1 [Example 19-206]

logP ([1]; Table 25, Physical data): logP = 2.59
SMILES: CCNc1c(-c2ccc(F)cc2)c(C)nn1-c1ncccn1 [Example 25-04]

logP ([1]; Table 25, Physical data): logP = 2.69
SMILES: CCNc1c(-c2ccccc2Cl)c(C)nn1-c1ncccn1 [Example 25-05]

logP ([1]; Table 25, Physical data): logP = 3.02
SMILES: CCNc1c(-c2cccc(Cl)c2)c(C)nn1-c1ncccn1 [Example 25-06]

logP ([1]; Physical data of Table 26): logP = 3.37
SMILES: CCCNc1c(-c2cccc(Cl)c2)c(C)nn1-c1ncccn1 [Example 26-6]

logP ([1]; Physical data of Table 26): logP = 3.42
SMILES: CCCNc1c(-c2ccc(Cl)cc2)c(C)nn1-c1ncccn1 [Example 26-7]

logP ([1]; Physical data of Table 26): logP = 3.37
SMILES: Cc1nn(-c2ncccn2)c(NCc2ccccc2)c1-c1ccccc1Cl [Example 26-44]

logP ([1]; Physical data of Table 26): logP = 4.23
SMILES: Cc1nn(-c2ncccn2)c(NCc2ccccc2)c1-c1ccc(Cl)cc1Cl [Example 26-54]

logP ([1]; Physical data of Table 26): logP = 3.84
SMILES: CC(C)=CCNc1c(-c2ccc(Cl)cc2)c(C)nn1-c1ncccn1 [Example 26-84]

lgP ([1]; Physical data column of Table 32): lgP = 1.76
SMILES: CCc1nn(-c2ncccn2)c(N)c1-c1ccc(Cl)nc1 [Example 32-37]

logP [1, 4]: logP 2.66; ^1H-NMR
SMILES: Nc1c(-c2ccc(Cl)cc2)c(C2CC2)nn1-c1ncccn1 [Example 35-07]

logP [1, 4]: logP 3.34
SMILES: Nc1c(-c2ccc(Br)cc2)c(C2CCCC2)nn1-c1ncccn1 [Example 35-87]

lgP [1, 5]: lgP = 2.84
SMILES: Nc1c(-c2ccc(F)c(F)c2)c(C(F)(F)F)nn1-c1ncc(F)cn1 [Example 43-10]
